Here are results for 9 compounds from ChEMBL document CHEMBL1201862, “PubChem BioAssay data set” (2004).

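96-well plates; 48 h exposure; 5 concentrations. Endpoints by linear interpolation between flanking doses. Not reached: highest tested concentration assigned. Here, GI50 denotes the concentration required for 50% inhibition of growth.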 Active and inactive are the calls of the source. No stated cut-off is given here; in the data, active = GI50 up to about 1.1 µM and inactive = higher.

Holding throughout (test): inhibition of tumour cell growth, NCI panel, 48 h
Assay [1] concerns OVCAR-4.
Assay [2] deals with CAKI-1.
Assay [3] concerns DMS-114.
For assay [4], the system named is DMS-273.
The subject of assay [5] is M14.
The subject of assay [6] is HCT-15.
Assay [7] has as its system UACC-257.
Assay [8] deals with M19-MEL.
Assay [9] has as its system LXFL 529.
In assay [10] the test system is SW-620.
Assay [11] concerns KM-20L2.
Assay [12] deals with EKVX.
Assay [13] relates to ACHN.
In assay [14] the test system is SNB-78.
Assay [15] has as its system HOP-92.
The test system of assay [16] is NCI-H460.
Assay [17] has as its system MCF7.
Assay [18] deals with NCI/ADR-RES.

As for `COc1ccccc1NC(=O)C(=O)C(C(=O)c1ccccc1F)C1OC(=O)c2ccccc21` (stereo not drawn), the GI50 is 28.1 µM (inactive) in assay [1]; 34.5 µM (inactive) in assay [2]; 23.1 µM (inactive) in assay [3]; 23.9 µM (inactive) in assay [4]; 27.5 µM (inactive) in assay [5]; 25 µM in assay [6]. The GI50 in assay [7] was 54.8 µM (inactive); in [8], 15.8 µM (inactive); in assay [9], 24.9 µM (inactive); in assay [10], 32.9 µM (inactive); in [11] it was 24.9 µM (inactive); in [12], 27.9 µM (inactive). Moreover, the GI50 in assay [13] was 39.4 µM (inactive); in assay [14], 25.5 µM (inactive); in assay [15], 42.6 µM (inactive); in assay [16], 25.8 µM (inactive).

Turning to `CC1(Cl)CC2C(CC1Sc1nnnn1-c1ccccc1)C2(C)C` (stereo not drawn), the GI50 in assay [1] was > 100 µM (inactive); in assay [3] it was 45.9 µM (inactive); in assay [4] it was 71.9 µM (inactive); in assay [5] it was > 100 µM (inactive); in assay [6] it was 41.3 µM; in [7] it was 87.3 µM (inactive). Also, the GI50 in [8] is > 100 µM (inactive); in [9] it was 60.3 µM (inactive); in assay [10], > 100 µM (inactive); in assay [11], 95.5 µM (inactive); in [12] it was 28.1 µM (inactive); in assay [13], 75.5 µM (inactive). Further, the GI50 was 92.7 µM (inactive) in [14], 58.6 µM (inactive) in assay [15] and 89.9 µM (inactive) in assay [16].

For `c1ccc([P+](Cc2csnn2)(c2ccccc2)c2ccccc2)cc1`, the GI50 is > 100 µM (inactive) in [1]; > 100 µM (inactive) in assay [2]; 64 µM (inactive) in assay [3]; > 100 µM (inactive) in assay [4]; > 100 µM (inactive) in assay [5]; greater than 100 µM in [6]. The GI50 in [7], in [8], in assay [9], in assay [10], in [11] and in assay [12] was > 100 µM (inactive) throughout. The GI50 in assay [13] is > 100 µM (inactive); in [14], > 100 µM (inactive); in assay [15], 80 µM (inactive); in assay [16], > 100 µM (inactive).

With `O=C(OCCO)C1CC2CC1C1(C2)OCCO1` (stereo not drawn), the GI50 in assay [1], in assay [2], in [3], in [4], in [5] and in assay [7] was > 100 µM (inactive) throughout. In addition, the GI50 in assay [8], in [9], in assay [10], in [11], in assay [12] and in [13] was > 100 µM (inactive) in each case. The GI50 in assay [14], in assay [15] and in assay [16] was > 100 µM (inactive) in each case.

For `NCCCCCC(CCN)SCC1OC(n2cnc3c(N)ncnc32)C(O)C1O` (stereo not drawn), the GI50 in assay [1] was > 1440 µM (inactive); in [2] it was 411 µM (inactive); in assay [3], 339 µM (inactive); in [4] it was 369 µM (inactive); in assay [6], greater than 946 µM; in assay [7] it was > 1260 µM (inactive). Further, the GI50 in assay [8] is > 843 µM (inactive); in [10], > 1500 µM (inactive); in [11], 482 µM (inactive); in assay [12], > 555 µM (inactive); in assay [17], > 1500 µM (inactive); in [18], > 948 µM (inactive). The GI50 was > 1020 µM (inactive) in assay [14], > 618 µM (inactive) in [15] and 379 µM (inactive) in assay [16].

`COc1cccc(NC(=O)CC(=O)NN2C(=O)/C(=C/c3ccc(N(CCC#N)CCC#N)cc3)N=C2c2cc([N+](=O)[O-])ccc2Cl)c1`: the GI50 in [1] was 99.1 µM (inactive); in assay [2], > 100 µM (inactive); in [3], 31 µM (inactive); in [4], > 100 µM (inactive); in assay [5], > 100 µM (inactive); in assay [6], greater than 100 µM. Also, the GI50 in assay [8] was > 100 µM (inactive); in [9], 40.7 µM (inactive); in assay [10] it was > 100 µM (inactive); in assay [11], 25.8 µM (inactive); in assay [12], 56.1 µM (inactive); in assay [13], > 100 µM (inactive). The GI50 in [14] and in [15] was > 100 µM (inactive) throughout.

On to `c1ccc2c(NCCCCCCCCNc3cccc4ccccc34)cccc2c1`, for which the GI50 is 28.2 µM (inactive) in assay [1]; 19.7 µM (inactive) in assay [2]; 25.6 µM (inactive) in [3]; 29.6 µM (inactive) in assay [4]; 19.9 µM (inactive) in assay [5]; 25.8 µM in assay [6]. Also, the GI50 was 19.8 µM (inactive) in assay [7]; > 10 µM (inactive) in assay [8]; 18.6 µM (inactive) in [9]; 21.1 µM (inactive) in [10]; 25.2 µM (inactive) in assay [11]; > 10 µM (inactive) in assay [12]. Further, the GI50 in [13] was 30 µM (inactive); in assay [14], 46.8 µM (inactive); in assay [15] it was 18.2 µM (inactive); in [16], 21.7 µM (inactive).

For the compound `COc1c(O)c(C=O)c2c(O)c(-c3c(C)cc4c(C(C)C)c(OC)c(O)c(C=O)c4c3O)c(C)cc2c1C(C)C` [6,6'-METHOXYGOSSYPOL], the GI50 was 3.86 µM (inactive) in assay [1]; 6.08 µM (inactive) in assay [2]; 3.08 µM (inactive) in assay [3]; 5.11 µM (inactive) in assay [4]; 9.86 µM (inactive) in [5]; 3.74 µM in assay [6]. For the same compound, the GI50 was 10.9 µM (inactive) in assay [7]; 3.65 µM (inactive) in [8]; 3.96 µM (inactive) in assay [9]; 5.33 µM (inactive) in [10]; 6.01 µM (inactive) in assay [11]; 4.86 µM (inactive) in assay [12]. Also, the GI50 in assay [13] is 2.43 µM (inactive); in [14], 25.3 µM (inactive); in [15], 2.2 µM (inactive); in assay [16] it was 4.72 µM (inactive).

On to `Cc1[nH]c(=O)[nH]c(=O)c1/C=C/C(=O)NC(CO)CC(C)C` (stereo not drawn), for which the GI50 in assay [1] was 214 µM (inactive); in [2], 146 µM (inactive); in assay [3], 260 µM (inactive); in [4] it was > 375 µM (inactive); in assay [6], greater than 360 µM; in assay [7], > 375 µM (inactive). Moreover, the GI50 in assay [8] was 322 µM (inactive); in [10], 351 µM (inactive); in assay [11], 88.1 µM (inactive); in [12], > 375 µM (inactive); in [17], 228 µM (inactive); in assay [18] it was > 375 µM (inactive). Moreover, the values for the GI50 in [14], in assay [15] and in assay [16] were 373 µM (inactive), 17.5 µM (inactive) and 163 µM (inactive), respectively.
